For 20 compounds, IC50 results are on record in patent US10040798B2, “Pyrrolopyridazine inhibitors of IRAK4 activity” (MERCK SHARP & DOHME CORP., priority 2015, dated 2018).

Counter-ions that a name gives are not always drawn.

This experiment has as its target IRAK4 (Homo sapiens (Human), UniProt Q9NWZ3). In words: IRAK4 Kinase Assay (IMAP fluorescence polarization). In kind it is biochemical. Conditions: 0.5 nM GST tagged IRAK4, 100 μM ATP, 30 minutes at 25° C., IMAP FP. The method, then: The kinase activity of IRAK4 is determined by its ability to catalyze the phosphorylation of a fluorescent polypeptide substrate. The extent of phosphorylation is measured using the IMAP technology (Molecular Devices) where the phosphorylated fluorescent substrate binds to the large M (III)-based nanoparticles which reduces the rotational speed of the substrate and thus increases its fluorescent polarization (FP).
20 μL reaction mixture contains 10 mM TriHCl, pH 7.2, 0.5 nM GST tagged IRAK4 (SignalChem), 100 nM fluorescent peptide substrate (RP7030, Molecular Devices), 100 μM ATP, 1 mM DDT, 1 mM MgCl2, and 0.01% Tween 20. The reaction is initiated by the addition of ATP. After incubation for 30 minutes at 25° C., 60 μL of Progressive IMAP Reagent (Molecular Devices) is added to stop the reaction. Change in RP7030's FP is determined by a FP reader (Analyst HT, LJL BioSystems).
In general terms: In fluorescence polarisation assays a small probe gives low polarisation when free and higher when bound to something large.

Sequence of IRAK4 (Q9NWZ3 whole entry): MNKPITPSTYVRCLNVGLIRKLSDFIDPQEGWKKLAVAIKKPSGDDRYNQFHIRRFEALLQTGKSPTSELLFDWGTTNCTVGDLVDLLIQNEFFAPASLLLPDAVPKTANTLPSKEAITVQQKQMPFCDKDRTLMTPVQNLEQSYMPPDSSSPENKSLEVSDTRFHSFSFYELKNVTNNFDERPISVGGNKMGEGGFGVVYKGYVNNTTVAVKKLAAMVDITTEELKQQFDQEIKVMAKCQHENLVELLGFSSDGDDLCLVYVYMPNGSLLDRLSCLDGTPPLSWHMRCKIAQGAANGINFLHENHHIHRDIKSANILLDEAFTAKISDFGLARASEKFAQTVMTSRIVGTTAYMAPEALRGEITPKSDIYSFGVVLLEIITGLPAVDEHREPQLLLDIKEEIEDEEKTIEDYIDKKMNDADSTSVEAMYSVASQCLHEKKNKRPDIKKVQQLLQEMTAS

The IC50 is the point on the concentration scale where inhibition reaches its midpoint. The low end stands for greater potency in that assay, the high end for weaker potency in that assay. `N[C@H]1CCCC[C@H]1Nc1ccc2ccc(C(=O)Nc3ccccc3Cl)n2n1` [Example 65, 2-{[(1R,2S)-2-aminocyclohexyl]amino}-N-(2-chlorophenyl)pyrrolo[1,2-b]pyridazine-7-carboxamide trifluoroacetate]: the midpoint of inhibition, the IC50, lay at 6 nM. This counts as single-digit nanomolar.
`O=C(Nc1ccsc1Cl)c1ccc2ccc(N[C@@H]3CCCC[C@@H]3O)nn12` [Example 91, N-(2-chlorothiophen-3-yl)-2-{[(1R,2S)-2-hydroxycyclohexyl]amino}pyrrolo[1,2-b]pyridazine-7-carboxamide] yielded an IC50 of 6370 nM.
As to `Cn1cc(NC(=O)c2ccc3ccc(N4CCCNCC4)nn23)c(C(F)(F)F)n1` [Example 10, 2-(1,4-diazepan-1-yl)-N-[1-methyl-3-(trifluoromethyl)-1H-pyrazol-4-yl]pyrrolo[1,2-b]pyridazine-7-carboxamide trifluoroacetate], half-maximal inhibition (IC50) was put at 33 nM.
Turning to `N#Cc1sccc1NC(=O)c1ccc2ccc(N[C@@H]3CCCC[C@@H]3O)nn12` [Example 97, N-(2-cyanothiophen-3-yl)-2-{[(1R,2S)-2-hydroxycyclohexyl]amino}pyrrolo[1,2-b]pyridazine-7-carboxamide trifluoroacetate], the IC50 was determined as 1370 nM.
`Cn1cc(NC(=O)c2ccc3ccc(N4CC5CCC(C4)N5)nn23)c(C(F)(F)F)n1` [Example 47, 2-(3,8-diazabicyclo[3.2.1]oct-3-yl)-N-[1-methyl-3-(trifluoromethyl)-1H-pyrazol-4-yl]pyrrolo[1,2-b]pyridazine-7-carboxamide trifluoroacetate]: half-maximal inhibition (IC50) required 9 nM.
`N[C@@H]1[C@H](Nc2ccc3ccc(C(=O)Nc4cscc4C(F)F)n3n2)CCCC1(F)F` [Example 96, 2-{[(1R,2R)-2-amino-3,3-difluoro-cyclohexyl]amino}-N-[4-(difluoro-methyl)thiophen-3-yl]pyrrolo[1,2-b]pyridazine-7-carboxamide trifluoroacetate] returned a concentration for half-maximal inhibition (IC50) of 753 nM.
Take `Cn1cc(NC(=O)c2ccc3ccc(N[C@@H]4CCCC(F)(F)[C@@H]4N)nn23)c(C(F)(F)F)n1` [Example 7, 2-{[(1R,2R)-2-amino-3,3-difluorocyclo-hexyl]amino}-N-[1-methyl-3-(trifluoromethyl)-1H-pyrazol-4-yl]pyrrolo[1,2-b]pyridazine-7-carboxamide trifluoroacetate]: the IC50 came to 189 nM.
The compound `O=C(Nc1ccsc1Br)c1ccc2ccc(N3C[C@@H]4CC[C@H]3CN4)nn12` (single isomer, unassigned) [Example 78, N-(2-bromothiophen-3-yl)-2-[(1S,4S)- or (1R,4R)-2,5-diazabicyclo[2.2.2]oct-2-yl]pyrrolo[1,2-b]pyridazine-7-carboxamide trifluoroacetate] had an IC50 of 697 nM.
Take `Cn1cc(NC(=O)c2ccc3ccc(N4C[C@@H]5CNC[C@H]4C5)nn23)c(C(F)F)n1` (single isomer, unassigned) [Example 125, 2-[(1S,5R)- or (1R,5S)-3,6-diazabicyclo[3.2.1]oct-6-yl]-N-[3-(difluoromethyl)-1-methyl-1H-pyrazol-4-yl]pyrrolo[1,2-b]pyridazine-7-carboxamide]: the IC50 was 5 nM.
`Cn1cc(NC(=O)c2ccc3ccc(N4CC5CCC4CN5)nn23)c(C#N)n1` (centres unmarked) [Example 31, N-(3-cyano-1-methyl-1H-pyrazol-4-yl)-2-(2,5-diazabicyclo[2.2.2]oct-2-yl)pyrrolo[1,2-b]pyridazine-7-carboxamide trifluoroacetate] displayed a half-inhibitory concentration (IC50) of 25 nM.
Compound `O=C(Nc1ccsc1Cl)c1ccc2ccc(N3CC4CCC3CN4)nn12` (centres unmarked) [Example 70, N-(2-chlorothiophen-3-yl)-2-(2,5-diazabicyclo[2.2.2]oct-2-yl)pyrrolo[1,2-b]pyridazine-7-carboxamide trifluoroacetate] returned a concentration for half-maximal inhibition (IC50) of 433 nM.
The compound `O=C(Nc1ccsc1C(F)(F)F)c1ccc2ccc(N3C[C@@H]4CC[C@H]3CN4)nn12` (single isomer, unassigned) [Example 113, 2-[(1S,4S)- or (1R,4R)-2,5-diazabicyclo[2.2.2]oct-2-yl]-N-[2-(trifluoromethyl)thiophen-3-yl]pyrrolo[1,2-b]pyridazine-7-carboxamide trifluoroacetate] yielded a half-maximal inhibitory concentration (IC50) of 1220 nM.
As to `Cn1cc(NC(=O)c2ccc3ccc(N4CCC[C@@H](N)C4)nn23)c(C(F)(F)F)n1` [Example 12, 2-[(3R)-3-aminopiperidin-1-yl]-N-[1-methyl-3-(trifluoromethyl)-1H-pyrazol-4-yl]pyrrolo[1,2-b]pyridazine-7-carboxamide trifluoroacetate], the IC50 turned out to be 0.5 nM. Against the preceding compound, the IC50 is about 2400-fold lower.
The compound `Cn1cc(NC(=O)c2ccc3ccc(N4CCC[C@@H](N)C4)nn23)c(C(F)F)n1` [Example 13, 2-[(3R)-3-aminopiperidin-1-yl]-N-[3-(difluoromethyl)-1-methyl-1H-pyrazol-4-yl]pyrrolo[1,2-b]pyridazine-7-carboxamide trifluoroacetate] displayed an IC50 of 0.5 nM.
As for `O=C(Nc1ccsc1C(F)(F)F)c1ccc2ccc(N3C[C@H]4CC[C@@H]3CN4)nn12` (single isomer, unassigned) [Example 114, 2-[(1S,4S)- or (1R,4R)-2,5-diazabicyclo[2.2.2]oct-2-yl]-N-[2-(trifluoromethyl)thiophen-3-yl]pyrrolo[1,2-b]pyridazine-7-carboxamide trifluoroacetate], inhibition was half-maximal at 1770 nM (IC50).
In the case of `Cn1cc(NC(=O)c2ccc3ccc(N4C[C@@H]5CN[C@@H](C5)C4)nn23)c(C(F)F)n1` (single isomer, unassigned) [Example 50, 2-[(1S,5S)- or (1R,5R)-3,6-diazabicyclo[3.2.1]oct-3-yl]-N-[3-(difluoromethyl)-1-methyl-1H-pyrazol-4-yl]pyrrolo[1,2-b]pyridazine-7-carboxamide] it was 4 nM; in that of `N#Cc1sccc1NC(=O)c1ccc2ccc(N3C[C@@H]4CC[C@H]3CN4)nn12` (single isomer, unassigned) [Example 80, N-(2-cyanothiophen-3-yl)-2-[(1S,4S)- or (1R,4R)-2,5-diazabicyclo[2.2.2]oct-2-yl]pyrrolo[1,2-b]pyridazine-7-carboxamide formate], 103 nM.
`Cn1cc(NC(=O)c2ccc3ccc(N4CC5CCC4CN5)nn23)c(C(F)F)n1` (centres unmarked) [Example 17, 2-(2,5-diazabicyclo[2.2.2]oct-2-yl)-N-[3-(difluoromethyl)-1-methyl-1H-pyrazol-4-yl]pyrrolo[1,2-b]pyridazine-7-carboxamide trifluoroacetate] registered a concentration for half-maximal inhibition (IC50) of 4 nM.
In the case of `Cn1cc(NC(=O)c2ccc3ccc(N4C[C@@H]5CC[C@H]4CN5)nn23)c(C#N)n1` (single isomer, unassigned) [Example 43, N-(3-cyano-1-methyl-1H-pyrazol-4-yl)-2-[(1S,4S)- or (1R,4R)-2,5-diazabicyclo[2.2.2]oct-2-yl]pyrrolo[1,2-b]pyridazine-7-carboxamide trifluoroacetate] it was 25 nM; in that of `Cn1cc(NC(=O)c2ccc3ccc(N[C@@H]4CCCC[C@@H]4O)nn23)c(Cl)n1` [Example 53, N-(3-chloro-1-methyl-1H-pyrazol-4-yl)-2-{[(1R,2S)-2-hydroxycyclohexyl]amino}pyrrolo[1,2-b]pyridazine-7-carboxamide trifluoroacetate], 55 nM.
